Tests used:
[1] = test system: Human pre-adipocyte cells; assay: Gene expression profile, effect on differentiation (pre-adipocyte culture, CodeLink Whole Genome chips); format: cell-based
Experimental: (§1) Two studies were conducted: one addressed the effect of sarsasapogenin on differentiation using a pre-adipocyte culture; the other addressed the effect of sarsasapogenin on mature adipocytes.
(§2) Human pre-adipocyte cells were inoculated and cultured (multiplication) for 5 days. Then: • either the cells were exposed to the induction medium in the presence or absence of sarsasapogenin for 8 or 24 h before culture arrest (study of the effect of sarsasapogenin on differentiation), • or the cells were exposed to the differentiation medium for 10 days, yielding mature adipocytes, then exposed or not exposed to sarsasapogenin for 24 h (study of the effect of sarsasapogenin on maturation).
(§3) At each time point, the mRNA of the cells was extracted using a commercially available kit (Roche Kit V6—Extraction of total RNA). In parallel, solvent controls were run and subjected to extraction in the same manner. The expression profile of the gene sequences was determined using CodeLink Whole Genome chips for each sample of RNA purified. The values obtained were normalized on the controls.

mature adipocytes = assay: Gene expression profile, effect on mature adipocytes (CodeLink Whole Genome chips); format: cell-based, Human; details: mature adipocytes exposed 24 h
Experimental: as §1, §2, §3

3T3-L1 cells [2] = assay: Residual proliferation capability during the differentiation phase (Hoechst test); format: cell-based; details: 3 days with differentiation cocktail
Experimental: The pre-adipocytes undergo a multiplication phase (clonal expansion) before beginning to differentiate.
A product stimulating proliferation would thus enable adipocytes that have already entered the differentiation phase to maintain a replication capability.
Protocol: 3T3-L1 cells were inoculated and cultured to confluence over 4 days (clonal expansion). The conventional differentiation cocktail was added to the culture and the cells were incubated in the absence (control) or in the presence of rising concentrations of sarsasapogenin for 3 days. Following incubation, the cell layers were harvested and subjected to a Hoechst test to quantify cell proliferation vs. the proliferation of the control cells and the cells incubated in the presence of pioglitazone (positive control).

3T3-L1 cells [3] = assay: Stimulation of differentiation: G3PDH activity; format: cell-based; details: mean for n = 3 tests
Experimental: Principle: after an in vivo proliferation phase, the pre-adipocytes begin differentiating under the influence of specific endogenous factors (in particular, glucocorticoids and insulin). In vitro, those factors are included in the conventional cocktail used to trigger differentiation.
The maintenance or amplification of differentiation when the cells are subsequently cultured in a simple maintenance medium is determined by assay of glycerol-3-phosphate dehydrogenase, G3PDH (or GPDH). The enzyme is involved in energy metabolism. Its activity regularly increases through the differentiation process.
Protocol: as previously, 3T3-L1 cells were cultured to confluence, then underwent differentiation induction with the conventional cocktail and were incubated in the absence or presence of sarsasapogenin at various concentrations. After 3 days of incubation, the differentiation cocktail was replaced by culture maintenance medium in the presence or absence of sarsasapogenin. After 3 days of incubation, the cell layers were harvested and G3PDH activity determined.

3T3-L1 cells [4] = assay: Stimulation of lipid uptake, red oil staining with image analysis; format: cell-based; details: mean for n = 3 tests
Experimental: Principle: adipocyte differentiation is a decisive stage in the transformation of pre-adipocytes into lipid-laden mature adipocytes. The intracellular accumulation of lipids is determined by conventional red oil staining (neutral lipid marker). The stained lipids can then be quantified under the microscope.
Protocol: 3T3-L1 cells were inoculated and cultured for 4 days (multiplication). This was followed by a differentiation phase (incubation with the conventional differentiation cocktail) and a maturation phase (maturation cocktail) in the absence or presence of sarsasapogenin at various concentrations.
At the end of that period, the cells were washed, fixed and stained with red oil. The cell layers were digitally photographed and the red staining quantified by image analysis.
The percentage red oil areas, shown in table 1, were expressed relative to the untreated control cells and the test was validated by comparison with pioglitazone (10 μM), the positive control for differentiation stimulation.

human adipocytes = assay: Stimulation of lipid uptake in human adipocytes; format: cell-based
Description: 4. Stimulation of Lipid Uptake by 3T3-L1 Cells and Human Adipocytes
The results were reproduced using human adipocytes.

[5] = time points 8 and 24 h of differentiation
[6] = values normalized on the controls, time point not stated

C[C@H]1CC[C@@]2(OC1)O[C@H]1C[C@H]3[C@@H]4CC[C@@H]5C[C@@H](O)CC[C@]5(C)[C@H]4CC[C@]3(C)[C@H]1[C@@H]2C [Sarsasapogenin, (3β, 5β, 25-S)-Spirostan-3-ol]
activation of the gene coding for protein MNT (MAX binding protein) ([1]; after 8 and 24 h of differentiation, normalized on solvent controls): induces activation
cyclin D3 gene up-regulation ([1]; normalized on the controls): markedly up-regulated
gene coding for Kruppel-like factor 5 (KLF5) ([1]; normalized on the controls): increase
induction of NPTXR / pentraxin-related gene ([1]; time point 24 h, normalized on the controls): > 7
SLC2A5/GLUT5 gene activation [1, 5]: activated
gene RAFTLIN activation [1, 5]: activated
induction of adipose differentiation-related protein (ADRP) or adipophilin ([1]; values normalized on the controls, study and time point not stated): > 4
gene COPS3 up-regulation [1, 6]: > 5
gene COPS5 up-regulation [1, 6]: > 5
increase in KLK10 (kallikrein) [1, 6]: > 10
status of gene p21 (mature adipocytes): activated status of gene p21 was maintained
Proliferation vs. Control (3T3-L1 cells [2]; 5 μM): +20.5% (p < 0.01)
Proliferation vs. Control (3T3-L1 cells [2]; 10 μM): +31.6% (p < 0.01)
Proliferation vs. Control (3T3-L1 cells [2]; 20 μM): +35.2% (p < 0.01)
Change in G3PDH activity vs. control (%) (3T3-L1 cells [3]; 5 μM): +103% (p < 0.01)
Change in G3PDH activity vs. control (%) (3T3-L1 cells [3]; 10 μM): +201% (p < 0.01)
Change in G3PDH activity vs. control (%) (3T3-L1 cells [3]; 15 μM): +429% (p < 0.01)
Change in G3PDH activity vs. control (%) (3T3-L1 cells [3]; 17.5 μM): +535% (p < 0.01)
% change in red oil content vs. control (3T3-L1 cells [4]; 5 μM): +135%
% change in red oil content vs. control (3T3-L1 cells [4]; 10 μM): +274%
% change in red oil content vs. control (3T3-L1 cells [4]; 17.5 μM): +492%
% change in red oil content vs. control (3T3-L1 cells [4]; 17.5 μM, listed as sarsasapogenin): greater than 492%
lipid incorporation results in human adipocytes (human adipocytes): reproduced

CCc1ccc(CCOc2ccc(CC3SC(=O)NC3=O)cc2)nc1 (stereo not shown) [pioglitazone, reference compound]
Proliferation vs. Control (3T3-L1 cells [2]; 10 μM): +49% (p < 0.01)
% change in red oil content vs. control (3T3-L1 cells [4]; 10 μM): +359%
